Measured values as given in publication PMC11781366 (Immunity, 2023).

What was measured:
D. serrata STING = experiment: microscale thermophoresis in lysates of transfected S2 cells; assay type: biochemical, Drosophila serrata
[1] = target: T1, D. melanogaster STING (dSTING) (Drosophila melanogaster, UniProt A0A0B4LFY9); experiment: as above; assay type: biochemical
T1 sequence (A0A0B4LFY9 1-343): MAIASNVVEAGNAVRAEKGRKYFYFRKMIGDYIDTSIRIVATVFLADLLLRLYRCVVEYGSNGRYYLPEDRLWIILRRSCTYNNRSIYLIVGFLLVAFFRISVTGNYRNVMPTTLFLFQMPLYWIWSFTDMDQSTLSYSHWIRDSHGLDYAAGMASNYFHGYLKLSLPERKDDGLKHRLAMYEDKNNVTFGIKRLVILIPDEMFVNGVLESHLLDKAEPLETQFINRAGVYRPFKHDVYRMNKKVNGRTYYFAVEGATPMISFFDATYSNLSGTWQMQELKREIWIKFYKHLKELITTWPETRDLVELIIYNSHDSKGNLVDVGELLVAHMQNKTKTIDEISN

Work on `Nc1nc2c(ncn2[C@@H]2O[C@@H]3COP(=O)(O)O[C@@H]4[C@H](O)[C@@H](COP(=O)(O)O[C@H]3[C@H]2O)O[C@H]4n2cnc3c(=O)[nH]c(N)nc32)c(=O)[nH]1` [2′3′-c-di-GMP] yielded a Kd (D. serrata STING) of 36.7 µM and a Kd [1] of 28.2 µM.
